Data taken from US20130072505A1, “6,9-Disubstituted Purine Derivatives and Their Use for Treating Skin” (priority 2006, published 2013).
Marks after values point to notes of the source that are not given here.

Test system: photodamaged facial skin
Assay: clinical study of topical treatment of photodamaged facial skin, 12 weeks
Type: in vivo, human
Settings: for Blotchiness/Brown Spots Change Relative to 2 Week Data / Fine Wrinkles Change Relative to 2 Week Data / Skin Color Change Relative to 2 Week Data / Skin Texture Change Relative to 2 Week Data / overall improvement, change relative to 2 week data: self assessment; for Skin Moisture / TEWL: 0.10% in MillCreek Lotion twice daily
Excerpt: A clinical study has been conducted to determine the cosmetic efficacy and subjects' tolerance of topical 6-furfurylamino-9-(2-tetrahydropyranyl)purine (0.10%) applied twice daily for 12 weeks to improve the clinical signs and symptoms of photodamaged facial skin. Forty female volunteer subjects age 40 to 65 with mild to moderate signs of photo damaged facial skin were enroled in the study. Thirty four subjects competed the study; the mean age of subjects competing the study was about 54 years. Subjects were instructed to apply the test product to the entire facial skin twice daily (i.e., early morning and approximately 1 hour before bedtime) for 12 consecutive weeks. Subjects were also instructed that, other than sunscreens or mild cleansers and use of color cosmetics, no other topical skin care products or medications were to be used on the face during the study. The test product comprised 0.1 percent 6-furfurylamino-9-(2-tetrahydropyranyl)purine in MillCreek Lotion as vehicle.
Subjects were assessed at weeks 2, 4, 8, and 12. The treated facial skin was evaluated for clinical signs of skin aging (e.g., coarse and fine wrinkles, roughness, mottled hyperpigmentation) at study entry (baseline) as well as 2, 4, 8 and 12 weeks. The subjects' self-assessment of improvement over baseline (wrinkles, texture, blotchiness, color, and overall improvement) were also obtained. In addition, transepidermal water loss (TEWL) and skin moisture measurements were taken on the cheeks of all subjects.
TEWL refers to the amount of water vapor loss through the stratum corneum. […] TEWL measurements were taken using a TEWL meter (Courage & Khazaka, Köln, Germany) having composed of a probe (containing humidity and temperature sensors) connected to a central processing unit. For each subject, the probe was placed in the center of both cheeks and measurements taken in duplicate.
An indirect measurement of the skin's moisture content was made by measuring changes in the skin's electrical properties. Impedance based capacitance measurements were taken on the skin using a NOVA DPM 9003® (NOVA Technologies, Gloucester, Mass., USA). The instrument performs measurements at varying preselected frequencies (up to 1 MHz) of the applied alternating current. A value directly related to capacitance is determined in arbitrary units; a higher value indicates a greater capacitance which indicates an increased level of moisture at the test site. Measurements in triplicate were taken in the center of both cheeks for each test subject.
At the baseline (Day 0) visit, an investigator evaluated each subject's face for the presence of fine wrinkles, coarse wrinkles, roughness, mottled hyperpigmentation, and other parameters using a five-point scale (0=None; 1=Minimal; 2=Mild; 3=Moderate; and 4=Severe). The overall severity of skin photodamage (wrinkles, roughness and mottled hyperpigmentation) was evaluated using a 10 point scale (0=None; 1-3=Mild; 4-6=Moderate; and 7-9=Severe); subjects with baseline severity scores greater than 6 were excluded from the study.
On each subsequent visit, the investigator evaluated overall improvement compared to baseline using a 6-point scale (1=excellent improvement; 2=marked improvement; 3=moderate improvement; 4=slight improvement; 5=no improvement; and 6=worse).
At each subsequent visit, the subjects were asked to complete a self-assessment questionnaire to assess the improvement from baseline for skin texture, skin color, blotchiness (i.e., brown spots), fine wrinkles; and overall improvement using a five-point scale (1=much improved; 2=somewhat improved; 3=no change; 4=somewhat worse; and 5=much worse).
This Example compares the clinical data for topically applied 6-furfurylamino-9-(2-tetrahydropyranyl)purine (0.10%) taken from Example 23 with similar clinical data generated for topically applied kinetin (0.1%) from an earlier study. […]

[1] = Week 4, investigator, five-point scale 0=None to 4=Severe
[2] = Week 4, subjects' self assessment, five-point scale 1=much improved to 5=much worse
[3] = Week 8, investigator, five-point scale 0=None to 4=Severe
[4] = Week 8, subjects' self assessment, five-point scale 1=much improved to 5=much worse
[5] = Week 12, investigator, five-point scale 0=None to 4=Severe
[6] = Week 12, subjects' self assessment, five-point scale 1=much improved to 5=much worse

SMILES: c1coc(CNc2ncnc3c2ncn3C2CCCCO2)c1 (stereo not drawn) [6-furfurylamino-9-(2-tetrahydropyranyl)purine]
- Erythema [1]: 0.31*
- Fine Wrinkles [1]: 1.97*
- Mottled Hyperpigmentation [1]: 1.50*
- Roughness [1]: 0.58*
- Skin Irritation [1]: 0
- Blotchiness/Brown Spots Change Relative to 2 Week Data (Week 4): −6.19%
- Fine Wrinkles Change Relative to 2 Week Data (Week 4): −18.68%
- Skin Color Change Relative to 2 Week Data (Week 4): −5.32%
- Skin Texture Change Relative to 2 Week Data (Week 4): −8.97%
- overall improvement, change relative to 2 week data (Week 4): −6.17%
- Blotchiness/Brown Spots [2]: 2.58
- Fine Wrinkles [2]: 2.11*
- Overall Improvement [2]: 2.14
- Skin Color [2]: 2.50*
- Skin Texture [2]: 2.03*
- Acne Change Relative to Baseline (Week 8): −9.52%
- Coarse Wrinkles Change Relative to Baseline (Week 8): −7.23%
- Erythema Change Relative to Baseline (Week 8): −66.67%
- Mottled Hyperpigmentation Change Relative to Baseline (Week 8): −30.65%
- Roughness Change Relative to Baseline (Week 8): −85.71%
- Skin Irritation Change Relative to Baseline (Week 8): 0
- Skin Moisture Change Relative to Baseline (Week 8): 35.10%
- TEWL Change Relative to Baseline (Week 8): 0.11%
- Skin Moisture (Week 8): 158.04* arbitrary units
- TEWL (Week 8): 13.08 g/m^2/hr
- Fine Wrinkles Change Relative to Baseline (Week 8, investigator): −21.79%
- Acne [3]: 0.53
- Coarse Wrinkles [3]: 2.20
- Erythema [3]: 0.20*
- Fine Wrinkles [3]: 1.74*
- Mottled Hyperpigmentation [3]: 1.23*
- Roughness [3]: 0.23*
- Skin Irritation [3]: 0
- Blotchiness/Brown Spots Change Relative to 2 Week Data (Week 8): −18.95%
- Fine Wrinkles Change Relative to 2 Week Data (Week 8): −23.60%
- Skin Color Change Relative to 2 Week Data (Week 8): −18.28%
- Skin Texture Change Relative to 2 Week Data (Week 8): −15.58%
- overall improvement, change relative to 2 week data (Week 8): −16.25%
- Blotchiness/Brown Spots [4]: 2.26*
- Fine Wrinkles [4]: 2.00*
- Overall Improvement [4]: 1.97*
- Skin Color [4]: 2.23*
- Skin Texture [4]: 1.91*
- Acne Change Relative to Baseline (Week 12): −45.00%
- Coarse Wrinkles Change Relative to Baseline (Week 12): −13.75%
- Erythema Change Relative to Baseline (Week 12): −66.67%%
- Mottled Hyperpigmentation Change Relative to Baseline (Week 12): −40.68%
- Roughness Change Relative to Baseline (Week 12): −83.64%
- Skin Irritation Change Relative to Baseline (Week 12): 0
- Skin Moisture Change Relative to Baseline (Week 12): 41.21%
- TEWL Change Relative to Baseline (Week 12): −27.79%
- Skin Moisture (Week 12): 165.42* arbitrary units
- TEWL (Week 12): 9.54* g/m^2/hr
- Fine Wrinkles Change Relative to Baseline (Week 12, investigator): −27.63%
- Acne [5]: 0.32*
- Coarse Wrinkles [5]: 2.03*
- Erythema [5]: 0.21*
- Fine Wrinkles [5]: 1.62*
- Mottled Hyperpigmentation [5]: 1.03*
- Roughness [5]: 0.26*
- Skin Irritation [5]: 0
- Blotchiness/Brown Spots Change Relative to 2 Week Data (Week 12): −23.16%
- Fine Wrinkles Change Relative to 2 Week Data (Week 12): −28.09%
- Skin Color Change Relative to 2 Week Data (Week 12): −22.58%
- Skin Texture Change Relative to 2 Week Data (Week 12): −23.38%
- overall improvement, change relative to 2 week data (Week 12): −18.75%
- Blotchiness/Brown Spots [6]: 2.15*
- Fine Wrinkles [6]: 1.88*
- Overall Improvement [6]: 1.91*
- Skin Color [6]: 2.12*
- Skin Texture [6]: 1.74*
- Skin irritation or other adverse effects (over the 12 week study period): not observed
